Measurements: BindingDB's records for doi:10.1042/BJ20021535 (University of Dundee, 2003)

Tests used:
[1] = biological target: Casein kinase I isoform delta (Rattus norvegicus, UniProt Q06486)
[2] = biological target: Cyclin-dependent kinase 2 (Homo sapiens, UniProt P24941)
[3] = biological target: Dual specificity tyrosine-phosphorylation-regulated kinase 1A (Rattus norvegicus, UniProt Q63470)
Ninein = Ninein (Homo sapiens, UniProt Q8N4C6)
[4] = biological target: T1, Serine/threonine-protein kinase Sgk1 (Homo sapiens, UniProt O00141)
T1 sequence (O00141 whole entry): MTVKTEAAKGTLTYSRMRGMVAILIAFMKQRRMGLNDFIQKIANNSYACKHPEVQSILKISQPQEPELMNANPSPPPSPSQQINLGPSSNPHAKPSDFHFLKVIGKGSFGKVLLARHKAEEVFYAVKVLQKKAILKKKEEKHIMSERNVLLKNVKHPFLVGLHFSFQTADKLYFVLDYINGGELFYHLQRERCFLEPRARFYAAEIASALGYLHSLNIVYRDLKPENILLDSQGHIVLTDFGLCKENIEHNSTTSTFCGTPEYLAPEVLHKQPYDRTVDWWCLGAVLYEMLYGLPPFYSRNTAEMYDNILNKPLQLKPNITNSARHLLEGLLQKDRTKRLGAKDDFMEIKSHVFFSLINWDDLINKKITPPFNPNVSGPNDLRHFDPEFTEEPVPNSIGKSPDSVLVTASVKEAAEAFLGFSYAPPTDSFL

[5] = biological target: Tyrosine-protein kinase Lck (Homo sapiens, UniProt P06239)
Tyrosine-protein kinase Lck, sequence (P06239 whole entry): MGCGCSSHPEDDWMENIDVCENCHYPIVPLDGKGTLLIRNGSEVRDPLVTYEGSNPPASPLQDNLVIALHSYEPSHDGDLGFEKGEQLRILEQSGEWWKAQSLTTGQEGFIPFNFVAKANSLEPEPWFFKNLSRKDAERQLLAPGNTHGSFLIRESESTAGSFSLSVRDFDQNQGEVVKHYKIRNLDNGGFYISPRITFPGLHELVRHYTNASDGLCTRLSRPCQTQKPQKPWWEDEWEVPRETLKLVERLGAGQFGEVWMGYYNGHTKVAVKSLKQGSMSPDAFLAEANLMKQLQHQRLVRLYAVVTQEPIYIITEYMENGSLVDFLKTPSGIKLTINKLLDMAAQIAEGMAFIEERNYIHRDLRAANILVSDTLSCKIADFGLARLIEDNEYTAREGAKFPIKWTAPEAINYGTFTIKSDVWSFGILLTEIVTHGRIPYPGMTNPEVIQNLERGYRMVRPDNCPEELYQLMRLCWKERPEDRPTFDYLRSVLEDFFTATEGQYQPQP

Ninein, sequence (Q8N4C6 whole entry): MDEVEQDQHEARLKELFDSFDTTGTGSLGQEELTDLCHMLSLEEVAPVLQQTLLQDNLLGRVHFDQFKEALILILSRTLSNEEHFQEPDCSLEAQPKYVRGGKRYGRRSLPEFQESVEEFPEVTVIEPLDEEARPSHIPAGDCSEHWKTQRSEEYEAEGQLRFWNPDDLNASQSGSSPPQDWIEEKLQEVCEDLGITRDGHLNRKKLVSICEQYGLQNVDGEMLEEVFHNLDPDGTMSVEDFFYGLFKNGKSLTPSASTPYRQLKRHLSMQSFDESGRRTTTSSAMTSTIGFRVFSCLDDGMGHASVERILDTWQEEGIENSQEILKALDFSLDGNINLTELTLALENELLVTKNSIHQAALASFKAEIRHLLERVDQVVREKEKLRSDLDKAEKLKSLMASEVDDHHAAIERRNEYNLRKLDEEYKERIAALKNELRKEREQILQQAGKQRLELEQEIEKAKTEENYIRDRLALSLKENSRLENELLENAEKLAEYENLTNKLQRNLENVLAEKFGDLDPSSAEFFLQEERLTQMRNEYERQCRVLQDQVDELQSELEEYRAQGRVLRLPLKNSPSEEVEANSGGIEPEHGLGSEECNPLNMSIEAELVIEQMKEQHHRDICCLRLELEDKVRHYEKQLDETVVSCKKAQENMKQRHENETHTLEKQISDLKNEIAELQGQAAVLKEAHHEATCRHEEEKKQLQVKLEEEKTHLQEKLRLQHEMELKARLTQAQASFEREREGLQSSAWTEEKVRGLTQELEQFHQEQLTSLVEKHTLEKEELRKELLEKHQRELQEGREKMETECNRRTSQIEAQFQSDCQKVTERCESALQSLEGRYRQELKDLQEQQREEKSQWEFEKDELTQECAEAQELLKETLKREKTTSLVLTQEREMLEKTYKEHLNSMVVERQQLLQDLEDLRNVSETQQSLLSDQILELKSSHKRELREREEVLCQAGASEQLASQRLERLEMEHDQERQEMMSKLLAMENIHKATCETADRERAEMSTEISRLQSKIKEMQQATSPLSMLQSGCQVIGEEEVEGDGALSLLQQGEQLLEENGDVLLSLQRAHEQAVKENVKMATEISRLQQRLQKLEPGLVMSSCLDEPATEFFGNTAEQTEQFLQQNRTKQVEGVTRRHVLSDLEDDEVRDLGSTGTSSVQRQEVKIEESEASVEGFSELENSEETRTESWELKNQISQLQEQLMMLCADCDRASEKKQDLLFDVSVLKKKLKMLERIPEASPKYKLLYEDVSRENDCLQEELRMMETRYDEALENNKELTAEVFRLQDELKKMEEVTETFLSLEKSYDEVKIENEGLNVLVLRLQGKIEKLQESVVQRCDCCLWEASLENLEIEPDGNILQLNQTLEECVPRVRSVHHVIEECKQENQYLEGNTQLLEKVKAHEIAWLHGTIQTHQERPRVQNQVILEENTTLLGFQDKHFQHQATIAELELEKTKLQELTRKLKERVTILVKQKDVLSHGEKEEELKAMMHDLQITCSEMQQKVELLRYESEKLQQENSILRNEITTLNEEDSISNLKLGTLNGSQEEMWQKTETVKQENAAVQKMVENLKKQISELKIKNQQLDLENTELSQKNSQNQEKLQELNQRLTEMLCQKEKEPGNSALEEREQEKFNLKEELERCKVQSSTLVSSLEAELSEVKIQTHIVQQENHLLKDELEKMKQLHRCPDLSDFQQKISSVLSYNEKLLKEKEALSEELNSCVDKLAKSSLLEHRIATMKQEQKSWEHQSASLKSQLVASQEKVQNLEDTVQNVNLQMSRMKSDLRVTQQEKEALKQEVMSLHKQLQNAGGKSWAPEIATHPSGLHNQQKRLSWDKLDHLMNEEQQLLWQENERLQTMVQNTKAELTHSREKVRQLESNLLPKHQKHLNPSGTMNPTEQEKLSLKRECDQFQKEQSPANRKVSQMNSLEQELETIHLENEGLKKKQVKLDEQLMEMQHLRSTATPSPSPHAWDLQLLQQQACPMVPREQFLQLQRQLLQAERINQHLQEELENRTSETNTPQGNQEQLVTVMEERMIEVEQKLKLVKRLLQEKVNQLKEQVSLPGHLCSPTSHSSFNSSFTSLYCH
Casein kinase I isoform delta, sequence (Q06486 whole entry, canonical isoform): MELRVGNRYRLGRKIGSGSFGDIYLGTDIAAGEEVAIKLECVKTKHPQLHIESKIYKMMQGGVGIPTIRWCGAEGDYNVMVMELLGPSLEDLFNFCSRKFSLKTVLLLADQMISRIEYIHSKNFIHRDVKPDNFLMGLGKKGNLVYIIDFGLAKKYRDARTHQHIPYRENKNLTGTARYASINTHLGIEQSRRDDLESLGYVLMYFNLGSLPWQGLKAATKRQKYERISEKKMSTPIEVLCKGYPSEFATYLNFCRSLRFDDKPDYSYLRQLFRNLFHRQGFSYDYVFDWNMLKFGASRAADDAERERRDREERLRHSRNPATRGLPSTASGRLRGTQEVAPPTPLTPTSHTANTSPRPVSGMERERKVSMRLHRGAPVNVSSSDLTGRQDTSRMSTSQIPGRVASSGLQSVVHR

Row | SMILES | Ki (Ninein) [µM] | Ki [1] [µM] | Ki [2] [µM] | further results
1 | Nc1ncnc2c1cnn2-c1ccccc1 [1-Phenyl-1H-pyrazolo[3,4-d]pyrimidin-4-ylamine] | – | 9.9 | – | –
2 | CC[C@H](CO)Nc1nc(NCc2ccccc2)c2ncn(C(C)C)c2n1 [2,6,9-Trisubstituted purine deriv. 28] | – | > 10 | – | –
3 | CC(C)[C@H](CO)Nc1nc(Nc2cccc(Cl)c2)c2ncn(C(C)C)c2n1 [(2R)-2-({6-[(3-chlorophenyl)amino]-9-(propan-2-yl)-9H-purin-2-yl}amino)-3-methylbutan-1-ol] | – | – | 0.1 | Ki [3]: 0.3 µM

The next lines start with results.

Row | Ki (Ninein) [µM] | SMILES | Ki [1] [µM] | Ki [2] [µM] | further results
4 | 0.19 | O=Nc1c(C2C(=O)Nc3ccccc32)[nH]c2ccccc12 (centres undefined) [Indirubin-3 -monoxime] | – | 0.59 | Ki [4]: 0.38 µM; Ki [5]: 0.3 µM
5 | 0.11 | O=C1Cc2c([nH]c3ccc([N+](=O)[O-])cc23)-c2ccccc2N1 [NSC 705701] | – | – | –
